Patent EP4361157A1, “FUSED TETRACYCLIC COMPOUND, PREPARATION METHOD THEREFOR AND APPLICATION THEREOF IN MEDICINE” (Jiangsu Hengrui Pharmaceuticals Co., Ltd., priority 2021, dated 2022)

Key:
Assay type in all cases: cell-based
[1] = test system: AGS cells; assay: Inhibition of 3D proliferation of AGS cells (CellTiter-Glo 3D); details: Homo sapiens, 120 h incubation
Description: AGS cells (Nanjing Cobioer, CBP60476) were cultured in a complete medium, namely RPMI1640 medium (Hyclone, SH30809.01) containing 10% fetal bovine serum (Corning, 35-076-CV). On the first day of the experiment, the AGS cells were seeded into a 96-well low adsorption plate (Corning, CLS7007-24EA) at a density of 1,000 cells/well using complete medium to form 90 µL of cell suspension per well. The plate was centrifuged at 2,000rpm for 5 min at room temperature and then incubated overnight in a cell incubator at 37 °C with 5% CO2.
(§1) The next day, 10 µL of serially-diluted test compound prepared from the complete medium was added to each well. The final concentrations of the compound of GP2d cells were 9 concentration points obtained by 3-fold serial dilution from 1 µM, and the final concentrations of the compound of AGS cells were 9 concentration points obtained by 3-fold serial dilution from 10 µM. A blank control containing 0.5% DMSO was set. The well plate was incubated in a cell incubator at 37 °C with 5% CO2 for 120 h. On the seventh day, the 96-well cell culture plate was taken out, 50 µL CellTiter-Glo® 3D reagent (Promega, G9682) was added into each well, the plate was shaken at room temperature for 25 min, pipetted and mixed well, 50 µL of the solution was transferred into a white impermeable 96-well plate (PE, 6005290), and the luminescence signal values were read using a multifunctional microplate reader (PerkinElmer, ENVISION).
(§2) Table 2. Inhibitory activity data for 3D proliferation of AGS and GP2d cells

[2] = test system: GP2d cells; assay: Inhibition of 3D proliferation of GP2d cells (CellTiter-Glo 3D); details: 120 h incubation
Description: GP2d cells (Nanjing Cobioer, CBP60010) were cultured in a complete medium, namely DMEM/high glucose medium (Hyclone, SH30243.01) containing 10% fetal bovine serum (Corning, 35-076-CV). On the first day of the experiment, GP2d cells were seeded into a 96-well low adsorption plate (Corning, CLS7007-24EA) with complete medium at a density of 1,000 cells/well to form 90 µL of cell suspension per well. The plate was centrifuged at 2,000 rpm for 5 min at room temperature and then incubated overnight in a cell incubator at 37 °C with 5% CO2.
as §1, §2

[3] = test system: AGS cells; assay: Inhibition of ERK phosphorylation of AGS cells (HTRF method); details: Homo sapiens, AGS, phosphorylated ERK/total ERK ratio, 1 h incubation
Description: AGS cells (Nanjing Cobioer, CBP60476) were cultured in RPMI1640 (Hyclone, SH30809.01) complete medium containing 10% fetal bovine serum. On the first day of the experiment, the AGS cells were seeded into a 96-well plate with complete medium at a density of 40,000 cells/well to form 190 µL of cell suspension per well. The plate was incubated overnight in a cell incubator at 37 °C with 5% CO2.
The next day, 10 µL of serially-diluted test compound prepared from the complete medium was added to each well. The final concentrations of the compound were 9 concentration points obtained by 5-fold serial dilution from 10 µM. A blank control containing 0.5% DMSO was set. The well plate was incubated in a cell incubator at 37 °C with 5% CO2 for 1 h. After completion of incubation, the 96-well cell culture plate was taken out, the medium was removed by pipetting, 200 µL PBS (Shanghai BasalMedia Technologies Co., Ltd., B320) was added to each well, and the cells were washed once. PBS was removed by pipetting, 50 µL of lysis buffer (Cisbio, 64KL1FDF) containing a blocking solution (blocking reagent, Cisbio, 64KB1AAC) was added to each well, and the well plate was lysed on a shaker for 40 min at room temperature with shaking. After lysis, the lysate was pipetted and mixed well, 16 µL of lysate was transferred to two HTRF 96-well assay plates (Cisbio, 66PL96100) per well, and then 4 µL of premixed phosphorylated ERK1/2 antibody solution (Cisbio, 64AERPEG) or 4 µL of premixed total ERK1/2 antibody solution (Cisbio, 64NRKPEG) was added to these two plates. The microplate was sealed with a sealing membrane, centrifuged for 1 min in a microplate centrifuge, and incubated overnight at room temperature in the dark. On the third day, the fluorescence values at an excitation wavelength of 337 nm and at emission wavelengths of 665 nm and 620 nm were read using an ENVISION multifunctional microplate reader (PerkinElmer, ENVISION).
Table 1. Inhibitory activity data for ERK phosphorylation of AGS cells

Work on `CCc1c(F)ccc2cc(O)cc(-c3nc4c5c(nc(OCC6(CN7CCC[C@H]7CO)CC6)nc5c3F)N3C[C@H]5CC[C@H](N5)[C@H]3CO4)c12` [Example 17, 5-Ethyl-6-fluoro-4-((5aS,6S,9R)-1-fluoro-12-((1-(((S)-2-(hydroxymethyl)pyrrolidin-1-yl)methyl)cyclopropyl)methoxy)-5a,6,7,8,9,10-hexahydro-5H-4-oxa-3,10a,11,13,14-pentaaza-6,9-methanonaphtho[1,8-ab]heptalen-2-yl)naphthalen-2-ol] yielded an IC50 [1] of 52.2 nM, an IC50 [2] of 4.9 nM and an IC50 [3] of 2.8 nM.
In the case of `Oc1cc(-c2nc3c4c(nc(OC[C@@]56CCCN5C[C@H](F)C6)nc4c2F)N2C[C@H]4CC[C@H](N4)[C@H]2CO3)c2c(F)cccc2c1` [Example 3-p1, 5-Fluoro-4-((5aS,6S,9R)-1-fluoro-12-(((2R,7aS)-2-fluorotetrahydro-1H-pyrrolizin-7a(5 H)-yl)methoxy)-5a,6,7,8,9,10-hexahydro-5H-4-oxa-3,10a,11,13,14-pentaaza-6,9-methanonaphtho[1,8-ab]heptalen-2-yl)naphthalen-2-ol], the IC50 [1] is reported as 95.3 nM, the IC50 [2] is reported as 13 nM and the IC50 [3] is reported as 17 nM.
`CCc1c(F)ccc2cc(O)cc(-c3nc4c5c(nc(OC[C@@]67CCCN6C[C@H](F)C7)nc5c3F)N3C[C@H]5CC[C@H](N5)[C@H]3CO4)c12` [Example 9-p1, 5-Ethyl-6-fluoro-4-((5aS,6S,9R)-1-fluoro-12-(((2R,7aS)-2-fluorotetrahydro-1H-pyrrolizin-7a(5H)-yl)methoxy)-5a,6,7,8,9,10-hexahydro-5H-4-oxa-3,10a,11,13,14-pentaaza-6,9-methanonaphtho[1,8-ab]heptalen-2-yl)naphthalen-2-ol] was tested, and the IC50 [1] was 5.8 nM, the IC50 [2] was 0.9 nM and the IC50 [3] was 0.4 nM.
With `Oc1cc(-c2nc3c4c(nc(OC[C@@]56CCCN5C[C@H](F)C6)nc4c2F)N2C[C@H]4CC[C@H](N4)[C@H]2CO3)c2c(F)c(F)ccc2c1` [Example 8-p1, 5,6-Difluoro-4-((5aS,6S,9R)-1-fluoro-12-(((2R,7aS)-2-fluorotetrahydro-1H-pyrrolizin-7 a(5H)-yl)methoxy)-5a,6,7,8,9,10-hexahydro-5H-4-oxa-3,10a,11,13,14-pentaaza-6,9-methanonaphtho[1,8-ab]heptalen-2-yl)naphthalen-2-ol] the IC50 [1] was 50.3 nM, the IC50 [2] was 1.3 nM and the IC50 [3] was 1.4 nM.
